Earlier results, collected in patent US8188245B2, “Enduracidin biosynthetic gene cluster from streptomyces fungicidicus” (priority 2006, dated 2012).

Legend:
[1] = test system: Gram-positive organisms, including MRSA
[2] = test system: S. aureus (100 strains, including 40% MRSA); conditions: 100 strains of S. aureus
[3] = test system: vancomycin resistant bacteria
[4] = test system: MRSA

Substance: Enduracidin
- Type of antibacterial effect ([1]; in vitro): bactericidal
- Minimal inhibitory concentrations (MICs) ([1]; wide spectrum of primarily Gram-positive organisms, lowest MICs ("as low as")): ≥ 0.05 µg/mL
- Antibacterial activity ([1]; wide variety of Gram-positive bacteria, including VRE and MRSA): active
- Concentration that no strain was able to survive [2]: 1 µg/mL
- Antibacterial activity [3]: active
- Toxicity or side effects ([4]; in vivo): No toxicity or side effects were reported
- Efficacy in humans ([4]; urinary tract and skin infections caused by MRSA): effective
